This note sets out measurements from patent US6713475B2, “Tricyclic benzodiazepines as vasopressin receptor antagonists” (Ortho-McNeil Pharmaceutical, Inc., priority 1999, dated 2004).

One assay has as its target V2 (Homo sapiens, UniProt P30518). Kind of assay: In vitro recombinant vasopressin receptor binding assay (V2 Bdg), displacement of 3H-arginine vasopressin. Also on record: expressed in transfected cells; host or cells: HEK-293. The note with it: for IC50: membrane with cloned human V-2 receptor (HEK-293); for V2 Bdg % inh: 0.1 uM, printed in parentheses in place of IC50. Put shortly: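 Displacement of ³H-vasopressin from membranes of HEK-293 cells bearing cloned human V-2 receptor, incubated with test compound one hour at room temperature. Bound label was collected on PEI-soaked GF/C filters, washed with cold saline/0.05% Tween 20, and counted by scintillation.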
In general terms: Loss of bound radioactivity is the signal in a displacement assay; it reports binding, not function.

In a further assay the target is T1, human V-1 receptor (Homo sapiens, UniProt P37288).
T1 construct: expressed in transfected cells; host or cells: HEK-293
Kind of assay: In vitro recombinant vasopressin receptor binding assay (V1 Bdg), displacement of 3H-arginine vasopressin. Conditions: for inhibition at 0.1 µM: read-out: V1 Bdg (% inh, 0.1 uM). How it is done: In vitro Recombinant Vasopressin Receptor Binding Assay
Compounds were assessed for their ability to displace ^3H-arginine vasopressin from the human V-1 or V-2 receptor in HEK-293 cells. Assay buffer is 50 mM Tris-Cl, 5 mM MgCl2, 0.1% BSA (pH 7.5) containing 5 ug/ml of aprotinin, leupeptin, pepstatin, 50 ug/ml bacitracin, and 1 mM Pefabloc. ^3H-vasopressin is ^3H-arginine-8-vasopressin (68.5 Ci/mmol, final concentration in assay is 0.65-0.75 nM). Into wells of 96-well round bottom polypropylene plates were added buffer, test compound, membrane (containing cloned human V-1 or V-2 receptor), and ^3H-vasopressin. The reaction plates were allowed to sit at room temperature for one hour. The samples were filtered through Unifilter GF/C plates (presoaked in 0.3 polyethyleneimine). The plates were washed 5 times with cold physiological saline containing 0.05% Tween 20. After drying, the bottom of the filter plates were sealed and 0.025 ml of Microscint-20 was added to each filter. The top of the plate was sealed, and the plate was counted. Non-specific binding was determined by the addition of 1.25 uM arginine-8-vasopressin in those wells.

T1 sequence (P37288 whole entry): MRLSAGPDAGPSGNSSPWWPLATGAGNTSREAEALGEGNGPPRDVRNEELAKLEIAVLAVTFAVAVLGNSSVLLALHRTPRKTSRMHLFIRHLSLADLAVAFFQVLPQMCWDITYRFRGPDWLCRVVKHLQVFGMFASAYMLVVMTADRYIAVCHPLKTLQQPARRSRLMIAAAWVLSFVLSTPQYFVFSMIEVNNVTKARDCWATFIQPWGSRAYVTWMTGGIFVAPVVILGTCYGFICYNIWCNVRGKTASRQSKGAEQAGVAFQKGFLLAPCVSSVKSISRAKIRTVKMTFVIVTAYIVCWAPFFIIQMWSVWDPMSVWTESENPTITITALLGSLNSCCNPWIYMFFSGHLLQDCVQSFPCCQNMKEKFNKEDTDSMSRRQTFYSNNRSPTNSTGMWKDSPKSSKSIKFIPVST

Broadly, the IC50 is the concentration needed to halve the response being measured. Turning to `Cc1ccc(-c2ccccc2C(=O)Nc2ccc(C(=O)N3CC4COCCN4Cc4ccccc43)c(F)c2)cc1` (racemic) [Compound 30, (RS)-2-(4-Methyl-phenyl)-N-[3-fluoro-4-(1,3,4,12a-tetrahydro-6H-[1,4]oxazino[4,3-a][1,4]-benzodiazepin-11(12H)-yl-carbonyl)phenyl]benzamide], on V2, the IC50 is 14 nM. Moreover, the inhibition at 0.1 µM on human V-1 receptor turned out to be 74%.
`O=C(Nc1ccc(C(=O)N2CC3CN(CC(F)(F)F)CCN3Cc3ccccc32)c(Cl)c1)c1ccccc1-c1ccccc1` (racemic) [Compound 91, (RS)-2-Phenyl-N-[3-chloro-4-(1,3,4,12a-tetrahydro-2-(2,2,2-trifluoroethyl)-6H-[1,4]pyrazino[4,3-a][1,4]-benzodiazepin-11(12H)-yl-carbonyl)phenyl]benzamide]: the “V2 Bdg % inh” value on V2 was “(31%/0.1 uM)”. The “V1 Bdg % inh” value on human V-1 receptor (1 uM) is on record as “(2%/1 uM)”.
Take `O=CN1CCN2Cc3ccccc3N(C(=O)c3ccc(NC(=O)c4ccccc4-c4ccccc4)cc3)CC2C1` (racemic) [Compound 59, (RS)-2-Phenyl-N-[4-(1,3,4,12a-tetrahydro-2-formyl-6H-[1,4]pyrazino[4,3-a][1,4]-benzodiazepin-11(12H)-yl-carbonyl)phenyl]benzamide]: the “V2 Bdg % inh” value on V2 was “(29%/0.1 uM)”. Also, the “V1 Bdg % inh” value at human V-1 receptor (10 uM) is “(17%/10 uM)”.
For the compound `Cc1c(F)cccc1C(=O)Nc1ccc(C(=O)N2CC3CN(C)CCN3Cc3ccccc32)c(Cl)c1` (racemic) [Compound 102, (RS)-2-Methyl-3-fluoro-N-[3-chloro-4-(1,3,4,12a-tetrahydro-2-methyl-6H-[1,4]pyrazino[4,3-a][1,4]-benzodiazepin-11(12H)-yl-carbonyl)phenyl]benzamide], the “V2 Bdg % inh” value on V2 was “(20%/0.1 uM)”. Besides, the “V1 Bdg % inh” value on human V-1 receptor (1 uM) is given as “(12%/1 uM)”.
Consider “(RS)-2-Chloro-5-trifluoromethyl-N-[3-chloro-4-(1,3,4,12a-tetrahydro-6H-[1,4]oxazino[4,3-a][1,4]-benzodiazepin-11(12H)-yl-carbonyl)phenyl]benzamide [Compound 17]”, for which the “V2 Bdg % inh” value on V2 was “(63%/0.1 uM)”. Besides, the “V1 Bdg (% inh, 0.1 uM)” value at human V-1 receptor stood at 13%.
As for “(RS)-2-Phenyl-N-[4-(9-chloro-1,3,4,12a-tetrahydro-6H-[1,4]thiazino[4,3-a][1,4]-benzodiazepin-11(12H)-yl-carbonyl)phenyl]benzamide [Compound 34]”, on V2, the “V2 Bdg % inh” value is given as “(41%/0.1 uM)”. Besides, the “V1 Bdg % inh” value on human V-1 receptor (10 uM) stood at 1%/10 uM.
“(RS)-3,5-Dichloro-N-[3-chloro-4-(1,3,4,12a-tetrahydro-6H-[1,4]thiazino[4,3-a][1,4]-benzodiazepin-11(12H)-yl-carbonyl)phenyl]benzamide [Compound 43]”: on V2, the “V2 Bdg % inh” value was “(47%/0.1 uM)”. Moreover, the “V1 Bdg (% inh, 0.1 uM)” value on human V-1 receptor is 11%.
As for `Cc1cccc(C)c1C(=O)Nc1ccc(C(=O)N2CC3COCCN3Cc3ccccc32)c(Cl)c1` (racemic) [Compound 10, (RS)-2,6-Dimethyl-N-[3-chloro-4-(1,3,4,12a-tetrahydro-6H-[1,4]oxazino[4,3-a][1,4]-benzodiazepin-11(12H)-yl-carbonyl)phenyl]benzamide], on V2, the IC50 is 9 nM. The inhibition at 0.1 µM at human V-1 receptor came to 15%.
With `O=C(Nc1ccc(C(=O)N2CC3COCCN3Cc3ccccc32)c(Cl)c1)c1cccc(Cl)c1F` (racemic) [Compound 18, (RS)-2-Fluoro-3-chloro-N-[3-chloro-4-(1,3,4,12a-tetrahydro-6H-[1,4]oxazino[4,3-a][1,4]-benzodiazepin-11(12H)-yl-carbonyl)phenyl]benzamide], the IC50 at V2 came out at 18 nM. On human V-1 receptor, the inhibition at 0.1 µM was 15%.
As for `CN1CCN2Cc3ccccc3N(C(=O)c3ccc(NC(=O)c4cc(F)ccc4-c4ccccc4)cc3Cl)CC2C1` (racemic) [Compound 100, (RS)-2-Phenyl-5-fluoro-N-[3-chloro-4-(1,3,4,12a-tetrahydro-2-methyl-6H-[1,4]pyrazino[4,3-a][1,4]-benzodiazepin-11(12H)-yl-carbonyl)phenyl]benzamide], the IC50 at V2 was 37 nM. For the same compound, at V2 (read-out: V2 Bdg % inh), the inhibition at 0.1 µM came out at 72%. Besides, on human V-1 receptor (1 uM, read-out: V1 Bdg % inh), the inhibition at 1 µM came out at 6%.
`Cc1ccc(F)c(C(=O)Nc2ccc(C(=O)N3CC4CN(C)CCN4Cc4ccccc43)c(Cl)c2)c1` (racemic) [Compound 96, (RS)-2-Fluoro-5-methyl-N-[3-chloro-4-(1,3,4,12a-tetrahydro-2-methyl-6H-[1,4]pyrazino[4,3-a][1,4]-benzodiazepin-11(12H)-yl-carbonyl)phenyl]benzamide]: the “V2 Bdg % inh” value on V2 is reported as “(3%/0.1 uM)”. In addition, the “V1 Bdg % inh” value on human V-1 receptor (1 uM) was “(9%/1 uM)”.
Take `CN1CCN2Cc3ccccc3N(C(=O)c3ccc(NC(=O)c4c(F)cccc4F)cc3Cl)CC2C1` (racemic) [Compound 99, (RS)-2,6-Difluoro-N-[3-chloro-4-(1,3,4,12a-tetrahydro-2-methyl-6H-[1,4]pyrazino[4,3-a][1,4]-benzodiazepin-11(12H)-yl-carbonyl)phenyl]benzamide]: the “V2 Bdg % inh” value at V2 is listed as “(10%/0.1 uM)”. At human V-1 receptor (1 uM), the “V1 Bdg % inh” value is “(12%/1 uM)”.
On to `O=C(Nc1ccc(C(=O)N2CC3CSCCN3Cc3cc(F)ccc32)cc1)c1ccccc1-c1ccccc1` (racemic) [Compound 32, (RS)-2-Phenyl-N-[4-(8-fluoro-1,3,4,12a-tetrahydro-6H-[1,4]thiazino[4,3-a][1,4]-benzodiazepin-11(12H)-yl-carbonyl)phenyl]benzamide], for which the IC50 at V2 stood at 20 nM. The inhibition at 10 µM at human V-1 receptor (10 uM, read-out: V1 Bdg % inh) came to 44%.
Regarding “(RS)-3,5-Dimethyl-N-[3-chloro-4-(1,3,4,12a-tetrahydro-6H-[1,4]thiazino[4,3-a][1,4]-benzodiazepin-11(12H)-yl-carbonyl)phenyl]benzamide [Compound 41]”, on V2, the “V2 Bdg % inh” value was “(38%/0.1 uM)”. Besides, the “V1 Bdg (% inh, 0.1 uM)” value at human V-1 receptor came out at 5%.
Regarding `Cc1ccccc1C(=O)Nc1ccc(C(=O)N2CC3CN(C)CCN3Cc3ccccc32)c(Cl)c1` (racemic) [Compound 61, (RS)-2-Methyl-N-[3-chloro-4-(1,3,4,12a-tetrahydro-2-methyl-6H-[1,4]pyrazino[4,3-a][1,4]-benzodiazepin-11(12H)-yl-carbonyl)phenyl]benzamide], the “V2 Bdg % inh” value at V2 is given as “(28%/0.I uM)”. The “V1 Bdg % inh” value on human V-1 receptor (1 uM) is reported as “(21%/1 uM)”.
Take `COc1ccc(-c2ccccc2C(=O)Nc2ccc(C(=O)N3CC4CN(C)CCN4Cc4ccccc43)c(Cl)c2)cc1` (racemic) [Compound 67, (RS)-2-(4-Methoxy-phenyl)-N-[3-chloro-4-(1,3,4,12a-tetrahydro-2-methyl-6H-[1,4]pyrazino[4,3-a][1,4]-benzodiazepin-11(12H)-yl-carbonyl)phenyl]benzamide]: at V2, the “V2 Bdg % inh” value is reported as “(36%/0.1 uM)”. Also, the “V1 Bdg % inh” value on human V-1 receptor (1 uM) is “(14%/1 uM)”.
Turning to `Cc1cc(NC(=O)c2ccccc2-c2ccccc2)ccc1C(=O)N1CC2CN(C)CCN2Cc2ccccc21` (racemic) [Compound 89, (RS)-2-Phenyl-N-[3-methyl-4-(1,3,4,12a-tetrahydro-2-methyl-6H-[1,4]pyrazino[4,3-a][1,4]-benzodiazepin-11(12H)-yl-carbonyl)phenyl]benzamide], the “V2 Bdg % inh” value on V2 is reported as “(56%/0.1 uM)”. Besides, the “V1 Bdg % inh” value at human V-1 receptor (1 uM) was “(51%/1 uM)”.
The corresponding values for `COc1cc(C(=O)N2CC3CN(C)CCN3Cc3ccccc32)ccc1NC(=O)c1ccccc1-c1ccccc1` (racemic) [Compound 72, (RS)-2-Phenyl-N-[2-methoxy-4-(1,3,4,12a-tetrahydro-2-methyl-6H-[1,4]pyrazino[4,3-a][1,4]-benzodiazepin-11(12H)-yl-carbonyl)phenyl]benzamide] are “(48%/0.1 uM)” and “(6%/1 uM)”.
Regarding `Cc1ccc(-c2ccccc2C(=O)Nc2ccc(C(=O)N3CC4CN(C)CCN4Cc4ccccc43)c(C(F)(F)F)c2)cc1` (racemic) [Compound 76, (RS)-2-(4-Methyl-phenyl)-N-[3-trifluoromethyl-4-(1,3,4,12a-tetrahydro-2-methyl-6H-[1,4]pyrazino[4,3-a][1,4]-benzodiazepin-11(12H)-yl-carbonyl)phenyl]benzamide], the “V2 Bdg % inh” value at V2 is “(50%/0.1 uM)”. Besides, the “V1 Bdg % inh” value at human V-1 receptor (1 uM) is listed as “(18%/1 uM)”.
Regarding `O=C(Nc1ccc(C(=O)N2C[C@H]3COCCN3Cc3ccccc32)c(Cl)c1)c1cc(O)ccc1-c1ccccc1` [Compound 8, (S)-2-Phenyl-5-hydroxy-N-[3-chloro-4-(1,3,4,12a-tetrahydro-6H-[1,4]oxazino[4,3-a][1,4]-benzodiazepin-11(12H)-yl-carbonyl)phenyl]benzamide], the IC50 on V2 is 27 nM. Besides, the inhibition at 0.1 µM on human V-1 receptor amounted to 32%.
In the case of `O=C(Nc1ccc(C(=O)N2C[C@H]3COCCN3Cc3ccccc32)c(Cl)c1)c1ccccc1-c1ccc(O)cc1` [Compound 5, (S)-2-(4-Hydroxyphenyl)-N-[3-chloro-4-(1,3,4,12a-tetrahydro-6H-[1,4]oxazino[4,3-a][1,4]-benzodiazepin-11(12H)-yl-carbonyl)phenyl]benzamide], the IC50 at V2 was 9 nM. Further, the inhibition at 0.1 µM at human V-1 receptor turned out to be 29%.
